Patent publication US9321772B2, “Substituted pyrazolo[3,4-D]pyrimidines and uses thereof” (The Regents of the University of California, priority 2011, dated 2016)
“Also recorded” adds a separate entry of the source.

What was measured:
[1] = tested on: 765>dRet^MEN2B wings (Ras/Erk pathway activity); experiment: Adult wing vein pattern assay (765>dRetMEN2B); format: in vivo, Drosophila; details: drug fed flies
Description: The adult Drosophila wing consists of a stereotypical pattern of […] and two cross-veins; increased Ras/Erk pathway activity leads to ectopic veins (e.g., Refs. (Sawamoto, K. et al., Dev Biol, 1996. 178(1): p. 13-22; Guichard, A. et al., Development, 1999. 126(12): p. 2663-76)). Expression of oncogenic dRet throughout the developing wing (765>dRet^MEN2B) led to disruption of the overall adult wing pattern including ectopic wing veins (FIG. 3D). Reducing gene dosage of the erk ortholog rolled (765>dRet^MEN2B erk−/+) suppressed these phenotypes (FIG. 3D), confirming that wing vein formation is dependent on Ras/Erk activity.

Ret kinase domain = molecular target: T1, Ret kinase domain (Homo sapiens, UniProt P07949); experiment: In vitro kinase assay, Ret; format: biochemical
T1 construct: determined against a purified form of the Ret kinase domain
T1 sequence (P07949 724-1016 limits assumed): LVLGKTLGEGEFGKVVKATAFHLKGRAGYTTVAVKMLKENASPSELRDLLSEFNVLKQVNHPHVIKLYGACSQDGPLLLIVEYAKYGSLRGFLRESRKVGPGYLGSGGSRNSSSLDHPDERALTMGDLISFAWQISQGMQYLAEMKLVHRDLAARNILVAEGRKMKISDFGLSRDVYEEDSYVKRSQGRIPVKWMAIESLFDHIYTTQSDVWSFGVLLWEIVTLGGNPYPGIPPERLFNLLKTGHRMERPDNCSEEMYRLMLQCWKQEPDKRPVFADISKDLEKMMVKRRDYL
Description: FIG. 1D. […] Half maximal inhibitory concentrations (IC50) were determined against a purified form of the Ret kinase domain.
(§1) Using in vitro kinase assays we tested AD57, AD36, and AD58 at 1 μM for activity against approximately one-half of the human kinome (FIG. 1E): 165 Ser/Thr kinases, 91 Tyr kinases, and 10 PI kinases were assayed, totaling 266 kinases (244 distinct kinases plus 22 mutant isoforms; see FIG. 6A-6C, FIG. 7A-7F, and FIG. 8 for measured inhibition values).
(§2) At least three major pathways are required for dRet^MEN2B-mediated transformation: Ras, Src, and glucose metabolism/PI3K (FIG. 3A; Ref (Read, R. D. et al., Genetics, 2005. 171(3): p. 1057-81)). We utilized in vitro kinase assays to assess compound activity against relevant kinases from each of these pathways, specifically Ret, B-Raf, Src, Tor, and S6K (FIG. 3B).

S6K = S6K (Homo sapiens, UniProt P23443); experiment: In vitro kinase assay, S6K; format: biochemical; details: in vitro kinase profile, 1 μM
Description: as §1, §2

mTor = mTor (Homo sapiens, UniProt P42345); experiment: In vitro kinase assay, mTor; format: biochemical; details: in vitro kinase profile, 1 μM
Description: as §1, §2

[2] = tested on: 266 kinases (approximately one-half of the human kinome); experiment: Kinome-wide in vitro kinase profiling; format: biochemical; details: 1 μM; among AD36, AD57, AD58
Description: (§3) FIG. 6A-6C Select Screen Inhibition Data for Tyrosine Kinases. Percent inhibition of kinase activity. Dark gray is greater than 80% inhibition, white is 40-80% inhibition, and light gray is less than 40% inhibition. Hashed boxes indicate no useful data was obtained. Full assay conditions described at www.invitrogen.com/kinaseprofiling.
as §3, with “7A-7F” for “6A-6C”, “Serine/Threonine” for “Tyrosine”
as §3, with “8” for “6A-6C”, “Lipid” for “Tyrosine”
as §1

EGFR (T790M) = EGFR (T790M) (Homo sapiens, UniProt P00533, T790M); experiment: In vitro kinase assay, EGFR gatekeeper mutant; format: biochemical; details: 1 μM
Description: FIG. 10F. Selectivity profiles for a subset of kinases. The gatekeeper mutant alleles of RET, ABL1, and EGFR are V804L, T315I and T790M, respectively.
as §1

[3] = tested on: MEN2A (TT) thyroid cancer cells; experiment: Immunoblot analysis of drug-treated TT cells; format: cell-based, human; details: for phospho-Ret and downstream biomarkers: 1 hour of treatment; for cell death (protein markers of apoptosis): 3 days, 2 μM
Description: FIG. 19. […] MEN2A (TT) and MEN2B (MZ) thyroid cancer cells were treated with the indicated drugs for 3 days at a final concentration of 2 μM. Cell lystates were immunoblotted for protein markers of apoptosis. Vandetanib (vand.) was included for comparison.
FIG. 20A-20B. […] FIG. 20A. MEN2B (MZ) and FIG. 20B. MEN2A (TT) thyroid cancer cells were treated with the indicated concentrations of drug. Following 1 hour of treatment, cells were harvested and lysates prepared for immunoblotting to detect the indicated proteins. VD=vandetanib; SF=sorafenib.

[4] = Pharmacokinetic profile in murine models; format: in vivo, mouse
Description: In addition to the experiments with AD57 and AD80 in drosophila, we have examined these molecules in murine models of cancer.

[5] = molecular target: T2, RET fusion protein CCDC6-RET (Homo sapiens, UniProt P07949); experiment: RET fusion dephosphorylation in TPC1 whole cell lysates; format: cell-based
T2 construct: endogenous in cells; host or cells: TPC1 thyroid cancer cells; the other entry of the earlier key: CCDC6 (Q16204, Coiled-coil domain-containing protein 6)
T2 sequence (P07949 with tags, fused parts or gaps): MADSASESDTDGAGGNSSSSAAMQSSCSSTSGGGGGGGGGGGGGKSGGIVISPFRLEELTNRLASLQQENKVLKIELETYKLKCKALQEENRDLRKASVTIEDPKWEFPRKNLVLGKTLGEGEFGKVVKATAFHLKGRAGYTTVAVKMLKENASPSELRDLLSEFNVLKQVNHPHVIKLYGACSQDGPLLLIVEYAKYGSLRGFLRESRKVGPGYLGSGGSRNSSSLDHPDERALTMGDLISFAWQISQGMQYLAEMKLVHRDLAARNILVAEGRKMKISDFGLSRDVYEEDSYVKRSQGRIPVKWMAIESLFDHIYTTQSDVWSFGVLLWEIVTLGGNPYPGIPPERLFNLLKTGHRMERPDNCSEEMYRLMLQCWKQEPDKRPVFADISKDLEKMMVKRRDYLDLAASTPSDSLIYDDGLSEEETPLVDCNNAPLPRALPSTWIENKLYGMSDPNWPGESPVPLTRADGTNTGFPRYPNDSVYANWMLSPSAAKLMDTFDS
Description: FIG. 24. Whole cell lysates of TPC1 cells were extracted after treatment with AD80 at indicated concentrations and given time points. TPC1 cells were grown in 6 cm dishes at 70-80% confluence in growth media supplemented with 10% FBS. AD80 treatment leads to dephosphorylation of the RET fusion protein at low nanomolar concentrations <10 nM. The inhibition of RET results in dephosphorylation of downstream signaling (PI3K, MAPK).

S6K, sequence (P23443 whole entry): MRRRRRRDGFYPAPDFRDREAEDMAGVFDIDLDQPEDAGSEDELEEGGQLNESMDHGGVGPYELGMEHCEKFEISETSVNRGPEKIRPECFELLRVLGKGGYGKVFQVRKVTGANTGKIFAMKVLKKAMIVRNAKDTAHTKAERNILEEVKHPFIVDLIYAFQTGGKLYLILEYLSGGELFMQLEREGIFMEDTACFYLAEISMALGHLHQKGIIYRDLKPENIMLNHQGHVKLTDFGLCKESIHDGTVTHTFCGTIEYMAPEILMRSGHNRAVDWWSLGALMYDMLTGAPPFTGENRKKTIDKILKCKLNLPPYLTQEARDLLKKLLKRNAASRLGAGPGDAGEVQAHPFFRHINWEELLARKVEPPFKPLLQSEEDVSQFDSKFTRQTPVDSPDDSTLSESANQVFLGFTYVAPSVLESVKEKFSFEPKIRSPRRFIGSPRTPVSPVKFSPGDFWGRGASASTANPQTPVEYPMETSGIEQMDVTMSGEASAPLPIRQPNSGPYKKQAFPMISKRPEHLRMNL
EGFR (T790M), sequence (P00533 25-1210 T790M): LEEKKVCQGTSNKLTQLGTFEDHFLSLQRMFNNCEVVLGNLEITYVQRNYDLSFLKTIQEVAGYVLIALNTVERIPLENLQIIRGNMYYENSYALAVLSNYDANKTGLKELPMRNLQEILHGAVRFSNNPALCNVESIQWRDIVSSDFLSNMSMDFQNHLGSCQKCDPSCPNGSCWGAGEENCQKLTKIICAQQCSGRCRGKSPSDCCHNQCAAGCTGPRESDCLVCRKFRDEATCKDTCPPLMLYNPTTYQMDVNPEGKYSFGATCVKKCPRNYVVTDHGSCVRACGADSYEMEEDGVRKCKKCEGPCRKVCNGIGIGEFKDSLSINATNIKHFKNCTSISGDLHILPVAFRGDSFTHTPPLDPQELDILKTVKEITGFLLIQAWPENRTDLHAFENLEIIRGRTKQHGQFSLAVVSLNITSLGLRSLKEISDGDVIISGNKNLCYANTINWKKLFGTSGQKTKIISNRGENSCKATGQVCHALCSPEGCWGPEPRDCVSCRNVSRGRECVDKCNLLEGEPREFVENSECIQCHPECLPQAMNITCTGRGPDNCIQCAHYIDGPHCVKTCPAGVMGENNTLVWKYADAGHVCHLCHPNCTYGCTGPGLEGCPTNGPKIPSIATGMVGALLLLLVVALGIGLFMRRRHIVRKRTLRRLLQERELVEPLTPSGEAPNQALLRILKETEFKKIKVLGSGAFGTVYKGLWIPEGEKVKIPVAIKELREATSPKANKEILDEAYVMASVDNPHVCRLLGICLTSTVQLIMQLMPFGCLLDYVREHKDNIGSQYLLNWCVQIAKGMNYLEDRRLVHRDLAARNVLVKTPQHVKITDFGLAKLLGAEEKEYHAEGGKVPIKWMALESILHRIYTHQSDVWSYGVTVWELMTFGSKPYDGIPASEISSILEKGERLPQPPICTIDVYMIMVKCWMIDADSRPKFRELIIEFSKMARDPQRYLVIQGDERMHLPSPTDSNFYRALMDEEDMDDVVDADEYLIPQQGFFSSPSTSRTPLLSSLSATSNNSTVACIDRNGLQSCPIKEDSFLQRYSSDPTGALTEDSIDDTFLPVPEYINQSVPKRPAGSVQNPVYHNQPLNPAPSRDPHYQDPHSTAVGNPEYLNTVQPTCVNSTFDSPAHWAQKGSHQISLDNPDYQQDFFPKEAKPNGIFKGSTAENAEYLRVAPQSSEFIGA

Row | Structure (SMILES) | ectopic wing vein / wing pattern phenotype [1] | potency for Ret in vitro (Ret kinase domain; purified Ret kinase domain) | S6K inhibition, in words (S6K) | mTor inhibition, in words (mTor) | number of kinases inhibited at a cutoff of greater than 80% inhibition [2] | inhibition of EGFR (T790M) versus wild type (EGFR (T790M)) | phospho-Ret and downstream biomarkers [3] | cell death (protein markers of apoptosis) [3] | pharmacokinetic profile, in words [4] | Ret inhibition, in words (Ret kinase domain; in vitro kinase profile, 1 μM) | concentration leading to dephosphorylation of the RET fusion protein [5] [nM]
1 | CC(C)n1nc(-c2ccc(NC(=O)Nc3cccc(C(F)(F)F)c3)cc2)c2c(N)ncnc21 [AD57] | suppressed | near equal potency | potent inhibitor | potent inhibitor | most | retained or improved on inhibition | potent inhibitors | induce cell death | pharmacokinetic profiles in a range that is similar to several clinical agents |  | 
2 | CC(C)n1nc(-c2ccc(NC(=O)Nc3cc(C(F)(F)F)ccc3F)cc2)c2c(N)ncnc21 [AD80] | suppressed; also recorded: potently rescued |  | inhibited | not and greatly reduced mTor activity and lack significant inhibitory activity |  |  | potent downregulation of phospho-Ret; also recorded: potent inhibitors | induce cell death | pharmacokinetic profiles in a range that is similar to several clinical agents | inhibited | < 10
